For experiment [1], the target named is T1, Human N-His6-IDE42-1019 (E. coli expressed) (Homo sapiens, UniProt P14735).
T1 construct: Human N-His6-IDE42-1019 (E. coli expressed); made in house; host or cells: E. coli (Rosetta 2 (DE3) pLysS, plasmid pTrcHis-A)
T1 sequence (P14735 42-1019): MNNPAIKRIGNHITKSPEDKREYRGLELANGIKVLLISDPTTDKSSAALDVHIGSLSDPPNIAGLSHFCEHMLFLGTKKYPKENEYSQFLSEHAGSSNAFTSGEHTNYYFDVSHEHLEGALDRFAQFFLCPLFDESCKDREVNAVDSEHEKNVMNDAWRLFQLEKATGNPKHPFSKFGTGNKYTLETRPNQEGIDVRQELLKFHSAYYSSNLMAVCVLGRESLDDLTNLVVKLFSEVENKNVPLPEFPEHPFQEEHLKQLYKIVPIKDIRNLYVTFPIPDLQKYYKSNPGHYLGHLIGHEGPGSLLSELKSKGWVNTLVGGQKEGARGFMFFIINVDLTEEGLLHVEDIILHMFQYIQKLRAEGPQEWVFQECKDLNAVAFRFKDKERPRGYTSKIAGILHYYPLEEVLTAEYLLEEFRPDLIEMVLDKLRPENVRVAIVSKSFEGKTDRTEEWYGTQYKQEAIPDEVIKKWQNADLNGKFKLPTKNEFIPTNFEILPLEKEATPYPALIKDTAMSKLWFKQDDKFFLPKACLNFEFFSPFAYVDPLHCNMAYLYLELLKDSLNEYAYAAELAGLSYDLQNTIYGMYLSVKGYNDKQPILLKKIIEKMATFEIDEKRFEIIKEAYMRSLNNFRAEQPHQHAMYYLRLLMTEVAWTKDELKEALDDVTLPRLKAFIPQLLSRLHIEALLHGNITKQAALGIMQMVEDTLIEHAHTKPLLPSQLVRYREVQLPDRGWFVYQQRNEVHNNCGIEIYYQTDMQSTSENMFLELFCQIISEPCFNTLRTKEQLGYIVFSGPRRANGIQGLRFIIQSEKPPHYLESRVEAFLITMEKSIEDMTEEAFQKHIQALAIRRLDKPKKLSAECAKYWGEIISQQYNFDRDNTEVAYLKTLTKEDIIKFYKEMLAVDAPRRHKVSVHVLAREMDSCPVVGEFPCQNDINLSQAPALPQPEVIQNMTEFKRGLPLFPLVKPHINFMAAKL
The experiment in a line: Fluorescence anisotropy high-throughput screening assay (displacement of probe FL-6b). In kind it is binding. As to the method: The fluorescence anisotropy screening method and probe FL-6b are described in PCT application PCT/US2014/064322, incorporated herein by reference.
Human N-His6-IDE42-1019 (E. coli expressed) was mixed with fluorescein-labeled macrocycle FL-6b:
[drawing 802] in 50 mM Tris buffer pH 8.0, with 1 M NaCl, at 25° C. Optimum signal was obtained using a mixture of […] probe FL-6b and 0.5 μM IDE. The “diversity-oriented (DOS) synthesis informer set” compound plates were pinned onto 384-well plates containing the enzyme-probe mixture (50 μL/well). The azetidine screen was pre-printed on 384-well plates and the enzyme-probe mixture was added (50 μL/well). The final compound concentration was 20 μM. IDE inhibitor 6bK was used as a positive control at a final concentration of 1 μM. After 30 minutes of equilibration, the increase in fluorescence anisotropy was recorded using an EnVision spectrophotometer (excitation 492 nm, emission 523 nm). The fluorescence anisotropy was independently measured twice for each screened compound. The Z-scores for each pair of measurements are plotted in FIG. 1A (DOS informer set) and FIG. 1B (azetidines), and average Z-scores are listed for exemplary compounds in Table E1.
Z-scores were calculated based on the raw anisotropy measured for each well according to Eq. 1, wherein x is the raw anisotropy value of the well, μ is the mean of the anisotropy of the negative control wells (DMSO) for the plate, and σ is the standard deviation in anisotropy of the negative control wells (DMSO) for the plate.

Experiment [2] concerns the target T2, recombinant human IDE42-1019 (Homo sapiens, UniProt P14735).
T2 construct: recombinant human IDE42-1019 (R&D Systems); purchased R&D Systems
T2 sequence (P14735 42-1019): T1 sequence (P14735 42-1019)
Kind of experiment: Protease assay with fluorogenic peptide substrate Mca-[…](Dnp)-OH. The note with it: fluorogenic peptide Mca-RPPGFSAFK(Dnp)-OH; for Emax: plateau at high inhibitor concentration, read-out: Imax (%) Proteolysis (inhibition maximum); for IC50: apparent IC50 for compounds with submaximal inhibition, read-out: IC50 (μM) Proteolysis. In kind it is biochemical.

The mark [3] stands for this setting: final compound concentration 20 μM (6bK control 1 μM), values without asterisk.
The mark [4] stands for this setting: values marked *: from the screen using the diversity-oriented synthesis (DOS) informer set of plates, 20 μM.

Molecules are shown by their SMILES.

On to `CCS(=O)(=O)N1CCCCN2[C@H](CO)[C@@H](c3ccc(-c4ccccc4C)cc3)[C@@H]2C1` [compound 416], for which the “Average Z-score (Fluorescence anisotropy)” value (“Average Z-score” for short) in experiment [1] (setting [3]) was −18.29. In experiment [2], the Emax worked out at 60%.

`COc1ccccc1-c1ccc([C@H]2[C@@H](CO)N3CCCCN(C(=O)c4ccncc4)C[C@H]23)cc1` [compound 586]: in experiment [1] (setting [3]), the “Average Z-score” value is reported as −17.17. Also, in experiment [2], the IC50 – broadly, the concentration that inhibits the measured activity by half – was 7 µM and the Emax was 70%.

For the molecule `COc1ccc(NC(=O)N2CCCCN3[C@H](CO)[C@H](c4ccc(-c5ccccc5C)cc4)[C@@H]3C2)cc1` [compound 529], the “Average Z-score” value in experiment [1] (setting [3]) was −0.82. The Emax in experiment [2] came to 30%.

For the molecule `Cc1ccccc1-c1ccc([C@H]2[C@@H](CO)N3CCCCN(S(=O)(=O)Cc4ccccc4)C[C@@H]23)cc1` [compound 236], the “Average Z-score” value in experiment [1] (setting [3]) is reported as −1.64. The IC50 in experiment [2] is over 200 µM.

Turning to `Cc1cccc(-c2ccc([C@H]3[C@@H](CO)N4CCCCN(Cc5cccnc5)C[C@H]34)cc2)c1` [compound 959], in experiment [1] (setting [3]), the “Average Z-score” value is listed as −6.79. For the same molecule, the 50% inhibitory concentration (IC50) in experiment [2] is over 60 µM.

In the case of `Cc1ccccc1-c1ccc([C@H]2[C@@H](CO)N3CCCCN(C(=O)Nc4ccccc4)C[C@@H]23)cc1` [compound 1570], the “Average Z-score” value in experiment [1] (setting [3]) was −1.37. Moreover, in experiment [2], the IC50 came to 7 µM and the Emax came to 40%.

As for `Cc1ccccc1-c1ccc(C2C3CN(Cc4ccncc4)CC2N3)cc1` (stereo not shown) [C3], the “Average Z-score” value in experiment [1] (setting [3]) was −9.02. Moreover, in experiment [2], the IC50 was 5 µM and the Emax amounted to 70%.

Take `Cc1cccc(-c2ccc([C@@H]3[C@@H](CO)N4CCCCN(C(=O)c5cccnc5)C[C@@H]34)cc2)c1` [compound 296]: the “Average Z-score” value in experiment [1] (setting [3]) is recorded as −3.25. In addition, the half-maximal inhibitory concentration (IC50) in experiment [2] was over 100 µM.

For `Cc1cccc(-c2ccc([C@H]3[C@@H](CO)N4CCCCN(C(=O)c5cccnc5)C[C@H]34)cc2)c1` [compound 091], the “Average Z-score” value in experiment [1] (setting [3]) is on record as −16.96. Also, in experiment [2], the half-maximal inhibitory concentration (IC50) was 7 µM and the Emax is 70%.

As for `Cc1cccc(-c2ccc([C@@H]3[C@@H](CO)N4CCCCN(Cc5cncnc5)C[C@@H]34)cc2)c1` [compound 654], the “Average Z-score” value in experiment [1] (setting [3]) is −6.65. Moreover, the concentration for half-maximal inhibition (IC50) in experiment [2] was over 100 µM.

Take `Cc1ccccc1-c1ccc(C2C3CN(Cc4cncnc4)CC2N3)cc1` (stereo not shown) [C8]: the “Average Z-score” value in experiment [1] (setting [3]) is given as −2.58. Further, in experiment [2], the IC50 is 7.5 µM and the Emax stood at 70%.

For the molecule `Cc1ccccc1-c1ccc([C@@H]2[C@@H](CO)N3CCCCN(C(=O)c4cccnc4)C[C@@H]23)cc1` [compound 353], in experiment [1] (setting [3]), the “Average Z-score” value was −7.98. For the same molecule, the Emax in experiment [2] came to 50%.

With `COc1ccccc1-c1ccc([C@H]2[C@@H](CO)N(C(=O)NC(C)C)[C@H]2C#N)cc1` [D2], the “Average Z-score” value in experiment [1] (setting [3]) is −16.33. For the same molecule, the Emax in experiment [2] came out at 100%.

Turning to `Cc1cccc(-c2ccc([C@H]3[C@@H](CO)N4CCCCN(C(=O)c5ccncc5)C[C@H]34)cc2)c1` [compound 836], the “Average Z-score” value in experiment [1] (setting [3]) is on record as −18.28. Also, in experiment [2], the Emax came to 60%.

As to `Cc1ccccc1-c1ccc([C@@H]2[C@@H](CO)N3C(=O)CN(C(=O)Cc4ccccn4)C[C@@H]23)cc1` [compound 081], in experiment [1] (setting [3]), the “Average Z-score” value is reported as −19.85. In experiment [2], the IC50 is 2.5 µM and the Emax was determined as 50%.

Take `O=C(CC1CC1)N1CC(=O)N2[C@H](C1)[C@H](c1ccc(C#Cc3ccccc3)cc1)[C@@H]2CO` [compound 187]: in experiment [1] (setting [3]), the “Average Z-score” value is listed as −15.91. In addition, the IC50 in experiment [2] is over 20 µM.

Consider `Cc1ccccc1-c1ccc([C@@H]2[C@@H](CO)N3CCCCN(S(=O)(=O)c4ccc(F)cc4)C[C@@H]23)cc1` [compound 217], for which the “Average Z-score” value in experiment [1] (setting [3]) is −17.51. In experiment [2], the Emax came to 40%.

For the molecule `COc1ccccc1-c1ccc(C2C3CN(C(=O)c4cccnc4)CC2N3)cc1` (stereo not shown) [C4], in experiment [1] (setting [3]), the “Average Z-score” value is given as −13.76. In addition, in experiment [2], the IC50 was determined as 7.5 µM and the Emax stood at 70%.

Turning to `Cc1cccc(-c2ccc([C@@H]3[C@@H](CO)N4CCCCN(S(=O)(=O)c5cn(C)cn5)C[C@@H]34)cc2)c1` [compound 342], the “Average Z-score” value in experiment [1] (setting [3]) is −17.53. Moreover, in experiment [2], the IC50 was determined as 0.6 µM and the Emax is 50%.

In the case of `Cc1ccccc1-c1ccc([C@H]2[C@H](CO)N3C(=O)CN(C(=O)c4ccncc4)C[C@@H]23)cc1` [compound 580], the “Average Z-score” value in experiment [1] (setting [3]) was −7.49. Also, the Emax in experiment [2] is 70%.

Take `Cc1ccccc1-c1ccc([C@H]2[C@H](CO)N3C(=O)CN(C(=O)c4ccc(F)cc4)C[C@@H]23)cc1` [compound 124]: the “Average Z-score” value in experiment [1] (setting [3]) is −16.49. The Emax in experiment [2] was determined as 70%.

Regarding `Cc1ccccc1-c1ccc([C@H]2[C@@H](CO)N3CCCCN(C(=O)c4cccnc4)C[C@@H]23)cc1` [compound 712], in experiment [1] (setting [3]), the “Average Z-score” value is −4.78. In addition, the IC50 in experiment [2] was over 100 µM.

With `Cc1ccccc1-c1ccc([C@H]2[C@@H](CO)N3C(=O)CN(C(=O)Nc4ccc(F)cc4)C[C@H]23)cc1` [compound 510], the “Average Z-score” value in experiment [1] (setting [3]) is on record as −21.34. Also, in experiment [2], the IC50 was found to be 0.5 µM and the Emax is 30%.

Take `Cc1ccccc1-c1ccc([C@H]2[C@@H](CO)N3CCCCN(S(=O)(=O)c4cn(C)cn4)C[C@H]23)cc1` [compound 736]: the “Average Z-score” value in experiment [1] (setting [3]) is −16.6. For the same molecule, in experiment [2], the half-maximal inhibitory concentration (IC50) is 2.5 µM and the Emax was 35%.

With `OC[C@H]1[C@@H](c2ccc(C#Cc3ccccc3)cc2)[C@@H]2CN(Cc3cncnc3)CCCCN12` [compound 525], the “Average Z-score” value in experiment [1] (setting [3]) was −16.2. Besides, in experiment [2], the IC50 was under 10 µM and the Emax was about 100%.

`Cc1ccccc1-c1ccc([C@H]2[C@@H](CO)N3CCCCN(C(=O)Cc4ccccn4)C[C@@H]23)cc1` [compound 890]: the “Average Z-score” value in experiment [1] (setting [3]) is given as −5.69. In addition, the IC50 in experiment [2] is over 100 µM.

Regarding `Cc1cccc(-c2ccc([C@@H]3[C@@H](CO)N4CCCCN(S(=O)(=O)c5ccccc5F)C[C@@H]34)cc2)c1` [compound 688], in experiment [1] (setting [4]), the “Average Z-score” value is on record as −27.23*.

In the case of `COc1ccccc1-c1ccc([C@@H]2[C@@H](C#N)N(C(=O)C3CC3)[C@@H]2CO)cc1` [D1], the “Average Z-score” value in experiment [1] (setting [3]) is on record as −16.97.

`Cc1ccccc1-c1ccc(C2C3CN(Cc4cccnc4)CC2N3)cc1` (stereo not shown) [C5]: in experiment [1] (setting [3]), the “Average Z-score” value is −13.95.

For the molecule `CCCNC(=O)N1CC(=O)N2[C@H](CO)[C@H](c3ccc(-c4cccc(C)c4)cc3)[C@@H]2C1` [compound 782], the “Average Z-score” value in experiment [1] (setting [3]) is reported as −16.08.

As for `COc1ccccc1-c1ccc([C@H]2[C@H](C#N)N[C@@H]2CO)cc1` [D7], the “Average Z-score” value in experiment [1] (setting [3]) was −10.49.

Consider `COc1cccc(C#Cc2ccc([C@@H]3[C@H](CO)N4C(=O)CN(C(=O)Cc5cccnc5)C[C@@H]34)cc2)c1` [compound 089], for which the “Average Z-score” value in experiment [1] (setting [3]) is −4.11.

As for `COc1ccccc1C#Cc1ccc([C@@H]2[C@H](CO)N3CCCCN(C(=O)C4CCC4)C[C@@H]23)cc1` [compound 930], the “Average Z-score” value in experiment [1] (setting [4]) is on record as −10.53*.

Values taken from patent US11040976B2, “Substrate selective inhibitors of insulin-degrading enzyme (IDE) and uses thereof” (President and Fellows of Harvard College, priority 2015, dated 2021).
